Results: ChEMBL document CHEMBL1201862, “PubChem BioAssay data set” (2004)
The source made the active and inactive calls.

Assays:
Streptokinase A = biological target: T1, Streptokinase A (Streptococcus pyogenes serotype M1, UniProt P10520); assay: S. pyogenes streptokinase expression inhibitors, potency, dose response, plasminogen activation absorbance, OD405 (AID 1914); assay type: functional, Streptococcus pyogenes M1 GAS;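 note: secreted streptokinase activity via plasminogen activation per viability signal from cell pellet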
T1 sequence (P10520 whole entry): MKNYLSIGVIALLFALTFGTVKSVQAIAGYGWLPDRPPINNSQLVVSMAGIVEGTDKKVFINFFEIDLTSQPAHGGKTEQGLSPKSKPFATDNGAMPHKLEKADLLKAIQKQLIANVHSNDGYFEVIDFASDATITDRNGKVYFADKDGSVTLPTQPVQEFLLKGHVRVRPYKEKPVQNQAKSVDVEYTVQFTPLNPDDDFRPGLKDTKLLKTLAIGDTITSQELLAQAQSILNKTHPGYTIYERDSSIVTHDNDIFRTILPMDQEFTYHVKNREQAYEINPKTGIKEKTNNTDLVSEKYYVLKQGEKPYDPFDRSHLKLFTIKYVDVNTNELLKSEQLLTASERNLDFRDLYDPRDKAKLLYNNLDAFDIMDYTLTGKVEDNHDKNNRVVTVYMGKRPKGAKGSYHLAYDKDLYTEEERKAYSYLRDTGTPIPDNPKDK

[1] = biological target: T2, Sentrin-specific protease 7 (Homo sapiens, UniProt Q9BQF6); assay type: functional;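 note: Luminescence-based dose-response confirmation of ultra-high-throughput screening hits, measuring inhibition of SENP7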
T2 sequence (Q9BQF6 whole entry): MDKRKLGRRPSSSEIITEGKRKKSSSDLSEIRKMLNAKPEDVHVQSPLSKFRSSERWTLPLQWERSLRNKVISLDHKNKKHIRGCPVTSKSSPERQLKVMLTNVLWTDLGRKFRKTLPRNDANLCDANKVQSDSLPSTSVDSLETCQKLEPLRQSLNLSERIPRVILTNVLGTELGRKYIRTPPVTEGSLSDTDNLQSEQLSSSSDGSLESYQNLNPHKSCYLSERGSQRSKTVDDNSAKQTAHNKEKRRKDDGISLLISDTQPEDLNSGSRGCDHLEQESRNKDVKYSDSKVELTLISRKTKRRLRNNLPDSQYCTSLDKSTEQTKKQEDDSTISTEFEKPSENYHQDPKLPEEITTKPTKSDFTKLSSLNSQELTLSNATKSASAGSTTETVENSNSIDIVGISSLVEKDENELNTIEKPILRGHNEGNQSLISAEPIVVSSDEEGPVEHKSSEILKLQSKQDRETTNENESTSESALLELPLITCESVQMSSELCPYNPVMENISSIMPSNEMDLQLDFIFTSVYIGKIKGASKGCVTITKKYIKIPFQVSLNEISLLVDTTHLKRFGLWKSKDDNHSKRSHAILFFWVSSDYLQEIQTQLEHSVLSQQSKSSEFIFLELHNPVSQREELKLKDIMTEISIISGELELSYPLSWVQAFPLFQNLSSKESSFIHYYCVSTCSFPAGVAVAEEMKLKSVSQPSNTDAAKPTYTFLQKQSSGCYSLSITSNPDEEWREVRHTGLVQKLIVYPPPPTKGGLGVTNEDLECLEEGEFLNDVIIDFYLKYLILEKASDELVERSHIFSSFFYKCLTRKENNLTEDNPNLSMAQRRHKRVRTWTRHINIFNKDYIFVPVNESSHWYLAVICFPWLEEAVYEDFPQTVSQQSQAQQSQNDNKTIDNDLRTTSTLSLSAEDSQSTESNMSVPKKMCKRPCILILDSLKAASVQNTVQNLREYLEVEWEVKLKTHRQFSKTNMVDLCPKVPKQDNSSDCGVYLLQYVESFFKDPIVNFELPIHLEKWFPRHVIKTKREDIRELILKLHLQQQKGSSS

[2] = biological target: T3, Apoptotic protease-activating factor 1 (Homo sapiens, UniProt O14727); assay type: functional
T3 sequence (O14727 whole entry): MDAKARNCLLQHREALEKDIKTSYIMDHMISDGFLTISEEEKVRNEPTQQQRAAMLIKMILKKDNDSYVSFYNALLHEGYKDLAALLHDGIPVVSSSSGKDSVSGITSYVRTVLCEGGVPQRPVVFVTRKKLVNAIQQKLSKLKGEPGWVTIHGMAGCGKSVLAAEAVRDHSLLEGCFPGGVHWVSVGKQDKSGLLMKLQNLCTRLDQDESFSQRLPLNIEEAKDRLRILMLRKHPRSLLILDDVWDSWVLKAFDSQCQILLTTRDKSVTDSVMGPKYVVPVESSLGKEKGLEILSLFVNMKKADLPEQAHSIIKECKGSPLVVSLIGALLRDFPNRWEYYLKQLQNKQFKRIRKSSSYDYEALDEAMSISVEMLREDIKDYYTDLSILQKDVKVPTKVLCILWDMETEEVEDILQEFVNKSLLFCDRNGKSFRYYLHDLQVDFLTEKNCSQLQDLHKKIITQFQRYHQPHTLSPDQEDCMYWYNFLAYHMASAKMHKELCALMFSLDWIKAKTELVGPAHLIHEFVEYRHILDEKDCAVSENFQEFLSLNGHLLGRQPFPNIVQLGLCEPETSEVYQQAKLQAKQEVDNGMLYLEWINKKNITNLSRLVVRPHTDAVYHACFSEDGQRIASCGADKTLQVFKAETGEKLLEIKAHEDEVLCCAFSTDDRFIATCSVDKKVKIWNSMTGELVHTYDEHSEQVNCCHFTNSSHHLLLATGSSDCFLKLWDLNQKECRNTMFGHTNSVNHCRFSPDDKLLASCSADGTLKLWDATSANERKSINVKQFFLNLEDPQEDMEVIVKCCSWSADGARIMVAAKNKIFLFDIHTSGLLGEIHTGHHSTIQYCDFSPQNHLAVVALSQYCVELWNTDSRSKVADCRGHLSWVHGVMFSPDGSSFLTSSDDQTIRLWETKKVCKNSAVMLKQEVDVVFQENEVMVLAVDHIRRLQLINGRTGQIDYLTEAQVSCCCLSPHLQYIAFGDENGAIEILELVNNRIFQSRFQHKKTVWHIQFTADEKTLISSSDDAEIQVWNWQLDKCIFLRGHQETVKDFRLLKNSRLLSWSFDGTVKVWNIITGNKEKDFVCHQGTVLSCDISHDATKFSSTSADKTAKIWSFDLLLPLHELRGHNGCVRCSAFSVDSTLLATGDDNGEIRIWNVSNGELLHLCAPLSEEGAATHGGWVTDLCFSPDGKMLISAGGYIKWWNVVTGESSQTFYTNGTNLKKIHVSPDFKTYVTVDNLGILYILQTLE

[3] = biological target: Dual specificity mitogen-activated protein kinase kinase 1 (Homo sapiens, UniProt Q02750); assay: Navigating the Kinome. Panel member name: MAP2K1; assay type: functional
Sequence of Dual specificity mitogen-activated protein kinase kinase 1 (Q02750 whole entry): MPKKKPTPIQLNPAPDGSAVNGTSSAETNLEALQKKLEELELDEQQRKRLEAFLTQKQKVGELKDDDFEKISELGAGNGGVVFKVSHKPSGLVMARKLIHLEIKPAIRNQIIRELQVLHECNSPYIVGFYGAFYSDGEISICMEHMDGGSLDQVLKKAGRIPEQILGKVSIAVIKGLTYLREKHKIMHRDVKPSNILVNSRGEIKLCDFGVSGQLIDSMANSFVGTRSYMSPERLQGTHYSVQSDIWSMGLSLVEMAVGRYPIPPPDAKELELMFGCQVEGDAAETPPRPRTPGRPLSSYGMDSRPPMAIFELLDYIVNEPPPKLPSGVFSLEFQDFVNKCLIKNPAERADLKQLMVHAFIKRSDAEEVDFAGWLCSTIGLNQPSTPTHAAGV

[4] = biological target: Serine/threonine-protein kinase TBK1 (Homo sapiens, UniProt Q9UHD2); assay: Navigating the Kinome. Panel member name: TBK1; assay type: functional
Sequence of Serine/threonine-protein kinase TBK1 (Q9UHD2 whole entry): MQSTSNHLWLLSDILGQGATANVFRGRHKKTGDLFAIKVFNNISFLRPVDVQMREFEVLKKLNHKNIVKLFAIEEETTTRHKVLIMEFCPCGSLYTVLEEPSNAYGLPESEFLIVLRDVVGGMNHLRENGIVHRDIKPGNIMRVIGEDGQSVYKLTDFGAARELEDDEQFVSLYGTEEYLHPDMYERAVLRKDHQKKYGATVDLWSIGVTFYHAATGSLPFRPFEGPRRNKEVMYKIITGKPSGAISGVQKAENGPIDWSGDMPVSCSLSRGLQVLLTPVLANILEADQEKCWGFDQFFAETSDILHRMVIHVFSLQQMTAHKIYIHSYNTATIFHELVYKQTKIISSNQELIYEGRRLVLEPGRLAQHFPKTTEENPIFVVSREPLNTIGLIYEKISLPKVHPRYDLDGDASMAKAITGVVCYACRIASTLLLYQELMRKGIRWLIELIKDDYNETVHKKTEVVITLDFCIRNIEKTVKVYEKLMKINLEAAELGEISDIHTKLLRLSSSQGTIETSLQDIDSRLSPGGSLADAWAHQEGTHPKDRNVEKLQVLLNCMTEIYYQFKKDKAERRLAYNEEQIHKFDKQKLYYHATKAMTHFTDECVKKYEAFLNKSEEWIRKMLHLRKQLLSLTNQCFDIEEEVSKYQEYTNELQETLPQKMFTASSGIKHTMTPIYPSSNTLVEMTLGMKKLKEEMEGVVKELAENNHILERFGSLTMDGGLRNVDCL

[5] = biological target: Proto-oncogene tyrosine-protein kinase receptor Ret (Homo sapiens, UniProt P07949); assay type: functional;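 note: measured within a kinome-wide profiling panel, RET as the panel member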
Sequence of Proto-oncogene tyrosine-protein kinase receptor Ret (P07949 whole entry): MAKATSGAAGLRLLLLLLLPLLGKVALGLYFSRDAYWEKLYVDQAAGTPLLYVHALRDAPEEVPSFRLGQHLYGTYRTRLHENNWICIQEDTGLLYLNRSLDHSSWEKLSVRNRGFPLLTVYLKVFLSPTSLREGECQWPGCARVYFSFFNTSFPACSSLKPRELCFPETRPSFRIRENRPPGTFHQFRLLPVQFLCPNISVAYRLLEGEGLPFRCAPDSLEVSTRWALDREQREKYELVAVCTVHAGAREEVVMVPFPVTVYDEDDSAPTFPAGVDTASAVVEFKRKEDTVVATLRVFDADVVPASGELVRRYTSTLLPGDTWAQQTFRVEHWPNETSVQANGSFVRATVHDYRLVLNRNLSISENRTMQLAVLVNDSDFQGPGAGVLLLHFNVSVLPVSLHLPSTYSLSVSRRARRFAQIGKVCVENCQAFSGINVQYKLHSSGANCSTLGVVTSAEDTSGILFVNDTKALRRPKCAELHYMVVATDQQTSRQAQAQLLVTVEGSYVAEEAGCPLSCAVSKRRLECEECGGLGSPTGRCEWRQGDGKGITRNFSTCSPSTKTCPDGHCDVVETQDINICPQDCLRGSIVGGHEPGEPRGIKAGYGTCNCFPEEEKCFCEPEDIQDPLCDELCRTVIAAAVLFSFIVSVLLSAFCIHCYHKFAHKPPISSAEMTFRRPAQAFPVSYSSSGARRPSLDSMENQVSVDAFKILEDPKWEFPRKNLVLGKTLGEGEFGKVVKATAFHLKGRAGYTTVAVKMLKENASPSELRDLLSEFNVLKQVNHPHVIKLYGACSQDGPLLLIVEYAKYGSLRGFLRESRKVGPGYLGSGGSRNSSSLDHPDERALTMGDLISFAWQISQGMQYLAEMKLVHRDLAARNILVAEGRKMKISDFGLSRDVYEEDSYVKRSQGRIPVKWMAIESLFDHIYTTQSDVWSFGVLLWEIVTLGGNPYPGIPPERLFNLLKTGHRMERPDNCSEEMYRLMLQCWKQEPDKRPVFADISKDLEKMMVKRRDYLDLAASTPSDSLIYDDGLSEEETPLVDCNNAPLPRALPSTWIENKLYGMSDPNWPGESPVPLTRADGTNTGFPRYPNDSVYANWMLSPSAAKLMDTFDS

[6] = biological target: Mitogen-activated protein kinase 8 (Homo sapiens, UniProt P45983); assay type: functional;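 note: value comes from one member of a kinome-wide kinase profiling panel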
Sequence of Mitogen-activated protein kinase 8 (P45983 whole entry): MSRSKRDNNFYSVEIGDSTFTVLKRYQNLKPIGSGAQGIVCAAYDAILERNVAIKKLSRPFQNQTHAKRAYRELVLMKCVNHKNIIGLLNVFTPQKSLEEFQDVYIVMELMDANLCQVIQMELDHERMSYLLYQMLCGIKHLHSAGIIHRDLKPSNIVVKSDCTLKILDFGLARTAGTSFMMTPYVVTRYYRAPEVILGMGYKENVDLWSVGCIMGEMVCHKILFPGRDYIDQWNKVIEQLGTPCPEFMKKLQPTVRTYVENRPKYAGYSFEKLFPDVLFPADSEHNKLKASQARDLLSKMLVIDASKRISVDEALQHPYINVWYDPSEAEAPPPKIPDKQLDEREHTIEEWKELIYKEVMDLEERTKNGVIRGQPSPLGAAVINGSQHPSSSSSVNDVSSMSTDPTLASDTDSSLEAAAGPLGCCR

[7] = biological target: Dual specificity tyrosine-phosphorylation-regulated kinase 1B (Homo sapiens, UniProt Q9Y463); assay: Navigating the Kinome. Panel member name: DYRK1B; assay type: functional
Sequence of Dual specificity tyrosine-phosphorylation-regulated kinase 1B (Q9Y463 whole entry): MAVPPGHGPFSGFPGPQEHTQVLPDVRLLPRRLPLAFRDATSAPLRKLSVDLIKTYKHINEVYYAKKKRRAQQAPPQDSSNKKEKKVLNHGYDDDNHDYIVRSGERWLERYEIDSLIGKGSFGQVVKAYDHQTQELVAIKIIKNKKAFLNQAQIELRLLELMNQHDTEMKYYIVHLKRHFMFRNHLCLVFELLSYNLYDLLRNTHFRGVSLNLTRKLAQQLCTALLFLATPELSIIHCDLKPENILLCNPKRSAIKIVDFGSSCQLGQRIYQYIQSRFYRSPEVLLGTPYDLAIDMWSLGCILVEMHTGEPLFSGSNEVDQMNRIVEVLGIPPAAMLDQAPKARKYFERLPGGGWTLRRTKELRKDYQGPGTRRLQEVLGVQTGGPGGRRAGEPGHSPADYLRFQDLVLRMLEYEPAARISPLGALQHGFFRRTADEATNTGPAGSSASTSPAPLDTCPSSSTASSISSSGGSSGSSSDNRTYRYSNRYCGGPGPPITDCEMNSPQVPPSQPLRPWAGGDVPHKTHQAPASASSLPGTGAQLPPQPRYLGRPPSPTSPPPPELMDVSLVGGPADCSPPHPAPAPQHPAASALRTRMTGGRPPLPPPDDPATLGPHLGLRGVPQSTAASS

CNC[C@H](Cc1ccccc1)NC[C@@H](Cc1cccc2ccccc12)NCCc1ccc(C)cc1
EC50 (Streptokinase A): > 150 µM (not active)

Nc1nnc2c(n1)CCCC2
IC50 [1]: 10.2 µM (active) | IC50 [2]: 7.19 µM (active)

O=C(Cc1ccccc1Cl)NC1(O)C(=O)c2ccccc2C1=O
IC50 [2]: 12 µM (active)

O=C(N/N=C/c1c(O)ccc2ccccc12)c1[nH]ncc1Br
IC50 [1]: 7.19 µM (active)

Nc1c(-c2ccc(NC(=O)Nc3cccc(C(F)(F)F)c3)cc2)cnc2c(-c3ccc4c(c3)OCO4)cnn12
Ki [3]: > 3.16 µM (inactive) | Ki [4]: > 3.16 µM (inactive) | Ki [5]: 0.00398 µM (active) | Ki [6]: > 5.01 µM (inactive) | Ki [7]: > 2.51 µM (inactive)

O=C(Nc1cc(-c2c[nH]c3ncccc23)cc(Cl)n1)c1ccccc1
Ki [3]: > 3.16 µM (inactive) | Ki [4]: > 3.16 µM (inactive) | Ki [5]: > 3.16 µM (inactive) | Ki [6]: > 5.01 µM (inactive) | Ki [7]: 0.316 µM (active)

CCN1C(=Cc2sc3ccccc3[n+]2C)C=Cc2cccc(C)c21
EC50 (Streptokinase A): > 150 µM (not active)
